Read-outs that look alike come from different tables or passages of the source.
Columns and labels:
human FXR (NR1H4) = target: T1, human FXR (NR1H4) (Homo sapiens, UniProt Q96RI1); assay: Human FXR (NR1H4) agonist assessment, FXRE-NanoLuc reporter in HEK293T cells; type: cell-based; conditions: for EC50: read-out: EC50
T1 sequence (Q96RI1 1-476 isoform Q96RI1-1): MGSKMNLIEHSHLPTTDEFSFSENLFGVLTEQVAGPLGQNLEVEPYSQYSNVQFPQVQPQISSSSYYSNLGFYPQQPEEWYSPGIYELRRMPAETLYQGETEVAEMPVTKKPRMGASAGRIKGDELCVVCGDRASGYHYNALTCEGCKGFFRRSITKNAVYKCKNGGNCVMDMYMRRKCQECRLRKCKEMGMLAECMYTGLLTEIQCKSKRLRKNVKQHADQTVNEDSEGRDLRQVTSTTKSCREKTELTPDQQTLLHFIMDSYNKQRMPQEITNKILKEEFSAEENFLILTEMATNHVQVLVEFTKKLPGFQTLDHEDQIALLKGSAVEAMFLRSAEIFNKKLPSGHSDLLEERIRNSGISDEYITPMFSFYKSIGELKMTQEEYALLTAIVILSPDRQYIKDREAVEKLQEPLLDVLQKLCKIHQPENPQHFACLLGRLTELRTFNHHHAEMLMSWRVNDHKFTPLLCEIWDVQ
How it was run: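 HEK293T cells stably expressing human FXR with an FXRE-NanoLuc reporter were treated with compounds for 24 hr at 37 °C, with 0.01% DMSO as negative control. Medium was read for luminescence after 5 min with coelenterazine. EC50 was fitted by sigmoid to concentration-response data.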

MRGPRX4 = MRGPRX4 (Homo sapiens, UniProt Q96LA9); assay: MRGPRX4 activation, Fluo-8 Ca2+ FLIPR assay in HEK293T cells stably expressing MRGPRX4; type: cell-based; design: key to MRGPRX4 activation, Average / MRGPRX4 activation, Ave.: fluorescence change dF/F0; conditions: for EC50: MRGPRX4 activation, Ca2+ fluorescence, no activation in tested range reported as III, read-out: Activity (EC50 μM)
MRGPRX4, sequence (Q96LA9 whole entry): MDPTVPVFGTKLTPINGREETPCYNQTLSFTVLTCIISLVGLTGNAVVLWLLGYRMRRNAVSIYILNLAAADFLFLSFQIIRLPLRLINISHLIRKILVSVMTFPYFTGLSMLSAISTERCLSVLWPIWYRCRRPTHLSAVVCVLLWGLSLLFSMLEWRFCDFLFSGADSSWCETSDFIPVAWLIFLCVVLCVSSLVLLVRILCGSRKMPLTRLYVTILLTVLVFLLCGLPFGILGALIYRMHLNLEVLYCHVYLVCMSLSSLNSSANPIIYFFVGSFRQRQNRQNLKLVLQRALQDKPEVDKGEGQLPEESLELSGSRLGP
How it was run: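 Cells seeded overnight to >95% confluence, loaded 40-60 min at room temperature with 2 μM Fluo-8 AM, then kept in HHBS. Baseline read 30 s, compound added, signal followed 150 s more.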

[1] = FXR activation, HEK293T FXRE-NanoLuc reporter, 24 hr

Compound	Efficacy (maximum measured induction of NanoLuc, normalized to CDCA set as 100%) (human FXR (NR1H4); [1])	EC50 (human FXR (NR1H4); [1])	MRGPRX4 activation, Average (MRGPRX4; E3-9, Conc. (Log[M]) −4.0)	MRGPRX4 activation, Average (MRGPRX4; E3-9, Conc. (Log[M]) −4.5)	MRGPRX4 activation, Average (MRGPRX4; E3-9, Conc. (Log[M]) −5.0)	MRGPRX4 activation, Average (MRGPRX4; E3-9, Conc. (Log[M]) −5.4)	MRGPRX4 activation, Average (MRGPRX4; E3-9, Conc. (Log[M]) −5.9)	EC50 (MRGPRX4)	other results
CC[C@H]1[C@@H](O)[C@@H]2[C@H](CC[C@]3(C)[C@@H]([C@H](C)CCNC(=O)NS(=O)(=O)c4cc(F)ccc4F)CC[C@@H]23)[C@@]2(C)CCC(F)(F)C[C@@H]12 [10-2]	C (100%<efficacy <=300%)	< 1 µM	0.006	0.004	0.010	0.018	0.018	> 100 µM	MRGPRX4 activation, Average (MRGPRX4; E3-9, Conc. (Log[M]) −6.4): 0.019; MRGPRX4 activation, Average (MRGPRX4; E3-9, Conc. (Log[M]) −6.9): 0.021; MRGPRX4 activation, Average (MRGPRX4; E3-9, Conc. (Log[M]) −7.3): 0.019; MRGPRX4 activation, Average (MRGPRX4; E3-9, Conc. (Log[M]) −7.8): 0.018; MRGPRX4 activation, Average (MRGPRX4; E3-9, Conc. (Log[M]) −8.3): 0.018
CC[C@H]1[C@@H](O)[C@@H]2[C@H](CC[C@]3(C)[C@@H]([C@H](C)CCNC(=O)NS(=O)(=O)c4ccc(C(C)(C)C)cc4)CC[C@@H]23)[C@@]2(C)CCCC[C@@H]12 [5-1]	B (300%<efficacy <=400%)	< 1 µM						> 100 µM	
CC[C@H]1[C@@H](O)[C@@H]2[C@H](CC[C@]3(C)[C@@H]([C@H](C)CCC(=O)O)CC[C@@H]23)[C@@]2(C)CCCC[C@@H]12 [compound 10]		1 to 10 µM						> 100 µM	Efficacy (maximum measured induction of NanoLuc, normalized to CDCA set as 100%) (human FXR (NR1H4)): C (key: A: efficacy >400%; B: 300%<efficacy <=400%; C: 100%<efficacy <=300%; D: efficacy <=100%); MRGPRX4 activation, fluorescence change (dF/F0), Average (MRGPRX4; Conc. (Log[M]) −4): 0.019; MRGPRX4 activation, fluorescence change (dF/F0), Average (MRGPRX4; Conc. (Log[M]) −4.5): −0.031; MRGPRX4 activation, fluorescence change (dF/F0), Average (MRGPRX4; Conc. (Log[M]) −5): −0.037; MRGPRX4 activation, fluorescence change (dF/F0), Average (MRGPRX4; Conc. (Log[M]) −5.5): −0.032; MRGPRX4 activation, fluorescence change (dF/F0), Average (MRGPRX4; Conc. (Log[M]) −6): −0.064; MRGPRX4 activation, fluorescence change (dF/F0), Average (MRGPRX4; Conc. (Log[M]) −7): −0.043; MRGPRX4 activation, fluorescence change (dF/F0), Average (MRGPRX4; Conc. (Log[M]) −8): −0.045; MRGPRX4 activation, fluorescence change (dF/F0), Average (MRGPRX4; Conc. (Log[M]) −9): −0.048
[2H]C1CC[C@@]2(C)[C@@H](C1)[C@@H](CC)[C@@H](O)[C@@H]1[C@@H]2CC[C@]2(C)[C@@H]([C@H](C)CCNC(=O)NS(=O)(=O)c3ccc(C(C)(C)CF)cc3)CC[C@@H]12 (some centres unmarked) [13-2]	A (efficacy >400%)	< 1 µM						> 100 µM	MRGPRX4 activation, Ave. (MRGPRX4; E3-7, Conc. (Log[M]) −4): −0.054; MRGPRX4 activation, Ave. (MRGPRX4; E3-7, Conc. (Log[M]) −4.5): −0.054; MRGPRX4 activation, Ave. (MRGPRX4; E3-7, Conc. (Log[M]) −5): −0.027; MRGPRX4 activation, Ave. (MRGPRX4; E3-7, Conc. (Log[M]) −5.5): −0.027; MRGPRX4 activation, Ave. (MRGPRX4; E3-7, Conc. (Log[M]) −6): −0.027; MRGPRX4 activation, Ave. (MRGPRX4; E3-7, Conc. (Log[M]) −7): 0.000
CC[C@H]1[C@@H](O)[C@@H]2[C@H](CC[C@]3(C)[C@@H]([C@H](C)CNC(=O)NS(=O)(=O)c4ccc(C(C)(C)CF)cc4)CC[C@@H]23)[C@@]2(C)CCCC[C@@H]12 [20-1]	A (efficacy >400%)	< 1 µM	0.018	0.016	0.019	0.019	0.021	> 100 µM	

From patent US20260116910A1, “POLYCYCLIC COMPOUNDS AND METHODS THEREOF” (HEPAITECH (BEIJING) BIOPHARMA TECHNOLOGY CO., LTD., priority 2021, published 2026)
